Experimental data published in publication PMC12114683, “The Molecular Chaperone TCP1 Affects Carcinogenicity and Is a Potential Therapeutic Target for Acute Myeloid Leukemia” (Pharmaceutics, 2025).

Biological target: T1, TCP1 (Homo sapiens, UniProt P17987)
T1 construct: commercial recombinant TCP1 (Abnova), isolated subunit, amine-coupled to CM5 chip; PDB 4B2T was only the docking model
Test: SPR (Biacore T200, CM5 chip, TCP1 amine-coupled)
Format: binding

T1 sequence (P17987 whole entry): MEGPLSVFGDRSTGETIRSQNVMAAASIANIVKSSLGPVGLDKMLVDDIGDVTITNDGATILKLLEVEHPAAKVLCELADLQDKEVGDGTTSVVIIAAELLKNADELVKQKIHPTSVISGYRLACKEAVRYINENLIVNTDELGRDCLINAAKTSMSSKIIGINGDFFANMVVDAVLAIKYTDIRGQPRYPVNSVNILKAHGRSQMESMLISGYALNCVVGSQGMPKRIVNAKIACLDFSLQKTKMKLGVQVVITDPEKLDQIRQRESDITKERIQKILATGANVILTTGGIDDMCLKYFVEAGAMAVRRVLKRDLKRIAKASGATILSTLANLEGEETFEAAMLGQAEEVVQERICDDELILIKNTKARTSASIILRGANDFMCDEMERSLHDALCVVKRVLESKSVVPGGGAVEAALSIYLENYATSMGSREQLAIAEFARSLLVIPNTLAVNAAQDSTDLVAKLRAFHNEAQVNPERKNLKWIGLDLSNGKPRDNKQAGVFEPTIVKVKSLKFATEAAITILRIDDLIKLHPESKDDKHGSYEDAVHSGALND

Compound `CCCCCCCCc1ccc(CCC(N)(CO)CO)cc1` [FTY720] has a Kd of 6.77 nM.
